Test results published in patent US11879893B2, “Rapid detection test for SARS-CoV-2” (priority 2020, dated 2024).
Where two headings read alike, the source gives them in different places. Marks after values point to notes of the source that are not given here. Square brackets hold non-standard residues; d marks the D form. Primed or numbered codes have the meaning given here. Peptide text beside a SMILES is read from it. * marks the point of attachment. Dabcyl′ = CN(C)c1ccc(/N=N/c2ccc(C(=O)*)cc2)cc1; Dabcyl = CN(C)c1ccc(N=Nc2ccc(C(=O)*)cc2)cc1; EDANS = O=S(=O)(O)c1cccc2c(NCCN*)cccc12; Sta = CC(C)C[C@H](N)[C@@H](O)CC(=O)O; Isovaleryl = CC(C)CC(=O)*

Assays:
Saliva = assay: Substrate cleavage by saliva (nonspecific activity); format: biochemical
Method: For these enzymatic reactions 150 ng/well enzyme was used under final and optimized assay conditions, i.e. […] Experiment were tested with 3 different saliva samples; representative results are shown.

HCoV-229E 3CL protease = molecular target: T1, HCoV-229E 3CL protease (Human coronavirus 229E, UniProt P0C6U2); assay: Substrate cleavage by HCoV-229E 3CL protease; format: biochemical; settings: for Enzymatic activity, Slope, HCoV-229E / cross reactivity SARS-CoV-2 versus HCoV-229E protease: enzyme 150 ng/reaction; for % Enz activity, HCoV-229E: Table 5: relative to the substrate's own protease = 100; for cross reactivity SARS-CoV-2 versus HCoV-229E protease: substrate 5 uM
T1 construct: 6xHIS-tag (N); TEV-protease cleavage site (ENLYFQG) (N); made in house; host or cells: Rosetta BL21 E. coli, pET14b
Method: (§1) Running condition: Substrate concentration-5 uM, enzyme concentration 150 ng/reaction.
(§2) Enzymatic activity (RFU/min) of SARS-CoV-2, HCoV-229E and HRV 3CL and 3C proteases using peptide (SEQ ID NO: 8) is summarized in Table 6. Substrate concentration-1 μM, enzyme concentration 150 ng/reaction.

HRV 3C protease = assay: Substrate cleavage by HRV 3C protease; format: biochemical, Human Rhinovirus (HRV); settings: for % Enz activity, HRV: Table 5: relative to the substrate's own protease = 100
Method: as §1, §2

SARS-CoV-2 3CL Pro = SARS-CoV-2 3CL Pro (Severe acute respiratory syndrome coronavirus 2, UniProt P0DTC1); settings: for Enzymatic activity, Slope, SARS-CoV-2: enzyme 150 ng/reaction; for % Enz activity, SARS-CoV-2: Table 5: relative to the substrate's own protease = 100
[1] = test system: non-specific protease activity in saliva; assay: Inhibitor test in saliva samples: non-specific protease activity; format: biochemical
Method: (§3) The purpose of adding protease inhibitors to the buffer is to reduce nonspecific saliva activity and increase signal to noise ratio. 29 inhibitors were tested using a competitive enzymatic activity assay of 3CL Protease in saliva samples.

3CL Protease [2] = molecular target: T2, 3CL Protease (Severe acute respiratory syndrome coronavirus 2, UniProt P0DTC1); format: biochemical, SARS-CoV-2; settings: saliva samples
T2 construct: 6xHIS-tag (N); TEV-protease cleavage site (ENLYFQG) (N); made in house
Method: as §3

[3] = test system: Buccal sample non-specific protease activity; assay: Inhibitor test in buccal samples: non-specific protease activity; format: biochemical
Method: Optimizing Inhibitor Cocktail to Maximize Buccal Sample Non-Specific Protease Activity Inhibition
(§4) 29 inhibitors were tested using a competitive enzymatic activity assay of 3CL protease in buccal samples.

3CL Protease [4] = molecular target: T2, 3CL Protease; format: biochemical, SARS-CoV-2
Method: as §4

3CL = molecular target: T3, 3CL (Severe acute respiratory syndrome coronavirus 2, UniProt P0DTC1); format: biochemical, SARS-CoV-2
T3 construct: 6xHIS-tag (N); TEV-protease cleavage site (ENLYFQG) (N); made in house; host or cells: Rosetta BL21 E. coli, pET14b
Method: In order to find the final and optimal reaction conditions, several parameters were tested:
Reducing agent: DTT and TCEP were tested at various concentrations to see if enzyme activity was affected.

[5] = Table 2: 5 μM substrate, Dabcyl/EDANS, final buffer
[6] = Table 4: substrate 5 uM, enzyme 150 ng/reaction
[7] = Table 3: 1 uM substrate, 488/535 nm, gain 1400, buffer without BSA
[8] = Table 2: 150 ng/well enzyme, 5 μM substrate, Dabcyl/EDANS, final buffer

Dabcyl-TSAVLQSGFRK-EDANS [Biosyn #1]
Saliva (Saliva; [5]): 1123 +/− 35 | Enzymatic activity, Slope, HCoV-229E (HCoV-229E 3CL protease; Table 4: substrate 5 uM): 856 RFU/min | % Enz activity, HCoV-229E (HCoV-229E 3CL protease): 95% | cross reactivity SARS-CoV-2 versus HCoV-229E protease (HCoV-229E 3CL protease): Cross reactivity was detected | Enzymatic activity, Slope, HRV (HRV 3C protease; [6]): −12 RFU/min | % Enz activity, HRV (HRV 3C protease): −1* %

Dabcyl-LEALFQGP[Asp-(EDANS) SQ [Amide] ({Dabcyl′}-LEALFQGPD(EDANS)SQ-NH2; SMILES CC(C)C[C@H](NC(=O)c1ccc(/N=N/c2ccc(N(C)C)cc2)cc1)C(=O)N[C@@H](CCC(=O)O)C(=O)N[C@@H](C)C(=O)N[C@@H](CC(C)C)C(=O)N[C@@H](Cc1ccccc1)C(=O)N[C@@H](CCC(N)=O)C(=O)NCC(=O)N1CCC[C@H]1C(=O)N[C@@H](CC(=O)NCCNc1cccc2c(S(=O)(=O)O)cccc12)C(=O)N[C@@H](CO)C(=O)N[C@@H](CCC(N)=O)C(N)=O) [Biosyn#7]
Enzymatic activity, Slope, HCoV-229E (HCoV-229E 3CL protease; Table 4: substrate 5 uM): 45 RFU/min | % Enz activity, HCoV-229E (HCoV-229E 3CL protease): 0% | Enzymatic activity, Slope, HRV (HRV 3C protease; [6]): 1041 RFU/min | % Enz activity, HRV (HRV 3C protease): 100% | specificity for HRV (HRV 3C protease; substrate 5 uM, enzyme 150 ng/reaction): specific for HRV | Enzymatic activity, Slope, SARS-CoV-2 (SARS-CoV-2 3CL Pro; Table 4: substrate 5 uM): 43 RFU/min | % Enz activity, SARS-CoV-2 (SARS-CoV-2 3CL Pro): 0%

[BHQ-1]-TSAVLQSGF-[Cys(AF488)]-RK-amide ({BHQ‑1}-TSAVLQSGFC(AF488)RK-NH2; also: places amidation at residue 10) [CBR #2]
Saliva (Saliva; [7]): 512 +/− 16 | Enzymatic activity, Slope, HCoV-229E (HCoV-229E 3CL protease; Table 6: substrate 1 μM): 1116 RFU/min | Enzymatic activity, Slope, HRV (HRV 3C protease; Table 6: substrate 1 μM, enzyme 150 ng/reaction): 9 RFU/min | Enzyme (SARS-CoV-2 3CL Pro; [7]): 6425 +/− 41 | Enzymatic activity, Slope, SARS-CoV-2 (SARS-CoV-2 3CL Pro; Table 6: substrate 1 μM): 3536 RFU/min | signal to noise (SARS-CoV-2 3CL Pro; enzyme versus saliva, Table 3 conditions): 12.5

Aprotinin
non-specific protease activity in saliva [1]: decreased | inhibition of 3CL specific activity (3CL Protease [2]): non significant inhibition | non-specific protease activity [3]: decreased | inhibition of 3CL specific activity (3CL Protease [4]; buccal samples): non significant inhibition

AC-DEVD-CHO
non-specific protease activity in saliva [1]: decreased | inhibition of 3CL specific activity (3CL Protease [2]): non significant inhibition

O=S(=O)(F)Cc1ccccc1 [PMSF]
non-specific protease activity in saliva [1]: decreased | inhibition of 3CL specific activity (3CL Protease [2]): non significant inhibition | non-specific protease activity [3]: decreased | ranking among 29 inhibitors tested [3]: four best inhibitors | inhibition of 3CL specific activity (3CL Protease [4]; buccal samples): non significant inhibition

[BHQ-1]-AVLQSGF-[Cys(AF488)]-RK-amide ({BHQ‑1}-AVLQSGFC(AF488)RK-NH2) [CBR #3]
Saliva (Saliva; [7]): 154 +/− 6 | Enzyme (SARS-CoV-2 3CL Pro; [7]): 461 +/− 18

CC(C)CC(=O)N[C@H](C(=O)N[C@H](C(=O)N[C@@H](CC(C)C)[C@@H](O)CC(=O)N[C@@H](C)C(=O)N[C@@H](CC(C)C)[C@@H](O)CC(=O)O)C(C)C)C(C)C [pepstatin] (Isovaleryl-VV[Sta]A[Sta]-OH)
non-specific protease activity [3]: decreased | inhibition of 3CL specific activity (3CL Protease [4]): non significant inhibition

Dabcyl-TSAVLQSGF-EDANS ({Dabcyl′}-TSAVLQSGF-{EDANS}; SMILES CC(C)C[C@H](NC(=O)[C@@H](NC(=O)[C@H](C)NC(=O)[C@H](CO)NC(=O)[C@@H](NC(=O)c1ccc(/N=N/c2ccc(N(C)C)cc2)cc1)[C@@H](C)O)C(C)C)C(=O)N[C@@H](CCC(N)=O)C(=O)N[C@@H](CO)C(=O)NCC(=O)N[C@@H](Cc1ccccc1)C(=O)NCCNc1cccc2c(S(=O)(=O)O)cccc12) [Substrate#2]
Saliva (Saliva; [5]): 187 +/− 7 | Enzyme (SARS-CoV-2 3CL Pro; [8]): 449 +/− 36

[BHQ-1]-AVLQSGFRK-[Cys(AF488)]-amide ({BHQ‑1}-AVLQSGFRKC(AF488)-NH2) [CBR #4]
Saliva (Saliva; [7]): 726 +/− 25 | Enzyme (SARS-CoV-2 3CL Pro; [7]): 657 +/− 6

[BHQ-1]-TSAVLQSGFRK-[Cys(AF488)]-amide [CBR #1]
Saliva (Saliva; [7]): 1356 +/− 37

Dabcyl-YGSTLQAGLRK-EDANS ({Dabcyl′}-YGSTLQAGLRK-{EDANS}; SMILES CC(C)C[C@H](NC(=O)CNC(=O)[C@H](C)NC(=O)[C@H](CCC(N)=O)NC(=O)[C@H](CC(C)C)NC(=O)[C@@H](NC(=O)[C@H](CO)NC(=O)CNC(=O)[C@H](Cc1ccc(O)cc1)NC(=O)c1ccc(/N=N/c2ccc(N(C)C)cc2)cc1)[C@@H](C)O)C(=O)N[C@@H](CCCNC(=N)N)C(=O)N[C@@H](CCCCN)C(=O)NCCNc1cccc2c(S(=O)(=O)O)cccc12) [Biosyn#6]
Enzymatic activity, Slope, HCoV-229E (HCoV-229E 3CL protease; Table 4: substrate 5 uM): 213 RFU/min | % Enz activity, HCoV-229E (HCoV-229E 3CL protease): 100% | cross reactivity SARS-CoV-2 versus HCoV-229E protease (HCoV-229E 3CL protease): greater activity towards SARS-CoV-2 than HCoV-229E protease | Enzymatic activity, Slope, HRV (HRV 3C protease; [6]): 44 RFU/min | % Enz activity, HRV (HRV 3C protease): −7* % | Enzymatic activity, Slope, SARS-CoV-2 (SARS-CoV-2 3CL Pro; Table 4: substrate 5 uM): 349 RFU/min | % Enz activity, SARS-CoV-2 (SARS-CoV-2 3CL Pro): 190%

OCC(O)CO [glycerol]
effect of potential enzyme mediator on enzyme activity (3CL): No positive effect

[Cl-].[Na+] [NaCl]
effect of potential enzyme mediator on enzyme activity (3CL): No positive effect

Dabcyl-AVLQSGFRK-EDANS ({Dabcyl′}-AVLQSGFRK-{EDANS}; SMILES CC(C)C[C@H](NC(=O)[C@@H](NC(=O)[C@H](C)NC(=O)c1ccc(/N=N/c2ccc(N(C)C)cc2)cc1)C(C)C)C(=O)N[C@@H](CCC(N)=O)C(=O)N[C@@H](CO)C(=O)NCC(=O)N[C@@H](Cc1ccccc1)C(=O)N[C@@H](CCCNC(=N)N)C(=O)N[C@@H](CCCCN)C(=O)NCCNc1cccc2c(S(=O)(=O)O)cccc12) [Substrate#4]
Saliva (Saliva; [5]): 1515 +/− 40 | Enzyme (SARS-CoV-2 3CL Pro; [8]): 1077 +/− 35

O[C@@H](CS)[C@@H](O)CS [DTT]
effect of reducing agent on enzyme activity (3CL; various concentrations, DTT 5 mM): most effective at preserving enzyme activity

Dabcyl-AVLQSGF-{EDANS} [Substrate#3]
Saliva (Saliva; [5]): 47 +/− 5 | Enzyme (SARS-CoV-2 3CL Pro; [8]): 354 +/− 18

Dabcyl-KTSAVLQSGFRKME-EDANS [Commercial substrate, reference compound]
Saliva (Saliva; [5]): 2309 +/− 64 | Enzymatic activity, Slope, HCoV-229E (HCoV-229E 3CL protease; Table 4: substrate 5 uM): 493 RFU/min | % Enz activity, HCoV-229E (HCoV-229E 3CL protease): 26% | cross reactivity SARS-CoV-2 versus HCoV-229E protease (HCoV-229E 3CL protease): greater activity towards SARS-CoV-2 than HCoV-229E protease | Enzymatic activity, Slope, HRV (HRV 3C protease; [6]): 87 RFU/min | % Enz activity, HRV (HRV 3C protease): 1%

2,6 PDA
non-specific protease activity in saliva [1]: decreased | inhibition of 3CL specific activity (3CL Protease [2]): non significant inhibition | ranking among 29 inhibitors tested [3]: four best inhibitors

Dabcyl-TSAVLQSGFYK-EDANS ({Dabcyl′}-TSAVLQSGFYK-{EDANS}; SMILES CC(C)C[C@H](NC(=O)[C@@H](NC(=O)[C@H](C)NC(=O)[C@H](CO)NC(=O)[C@@H](NC(=O)c1ccc(/N=N/c2ccc(N(C)C)cc2)cc1)[C@@H](C)O)C(C)C)C(=O)N[C@@H](CCC(N)=O)C(=O)N[C@@H](CO)C(=O)NCC(=O)N[C@@H](Cc1ccccc1)C(=O)N[C@@H](Cc1ccc(O)cc1)C(=O)N[C@@H](CCCCN)C(=O)NCCNc1cccc2c(S(=O)(=O)O)cccc12) [Substrate#5]
Saliva (Saliva; [5]): 4688 +/− 53 | Enzyme (SARS-CoV-2 3CL Pro; [8]): 527 +/− 7

B1: Eglin C (protein)
chain: TEFGSELKSFPEVVGKTVDQAREYFTLHYPQYDVYFLPEGSPVTLDLRYNRVRVFYNPGTNVVNHVPHVG
non-specific protease activity in saliva [1]: decreased | inhibition of 3CL specific activity (3CL Protease [2]): non significant inhibition | non-specific protease activity [3]: decreased | ranking among 29 inhibitors tested [3]: four best inhibitors | inhibition of 3CL specific activity (3CL Protease [4]; buccal samples): non significant inhibition
